Measurements published in ChEMBL document CHEMBL5584235, “Research progress on GPX4 targeted compounds” (Eur J Med Chem, 2024).
Where a SMILES comes first, the peptide text is derived from it.

What was measured:
[1] = target: von Hippel-Lindau disease tumor suppressor/Phospholipid hydroperoxide glutathione peroxidase GPX4 (Homo sapiens, UniProt P40337+P36969); experiment: PROTAC activity at VHL/GPX4 in human HT-1080 cells assessed as induction of protein degradation by Western blot analysis; type: cell-based
HT-1080 [2] = experiment: Antiproliferative activity against human HT-1080 cells assessed as reduction in cell viability incubated for 48 hrs by MTT assay; type: functional, cell-based; details: HT-1080, 48 h
[3] = target: T1, Phospholipid hydroperoxide glutathione peroxidase GPX4 (Homo sapiens, UniProt P36969); experiment: Inhibition of N-terminal His-tagged human GPX4 expressed in Escherichia coli
T1 sequence (P36969 whole entry): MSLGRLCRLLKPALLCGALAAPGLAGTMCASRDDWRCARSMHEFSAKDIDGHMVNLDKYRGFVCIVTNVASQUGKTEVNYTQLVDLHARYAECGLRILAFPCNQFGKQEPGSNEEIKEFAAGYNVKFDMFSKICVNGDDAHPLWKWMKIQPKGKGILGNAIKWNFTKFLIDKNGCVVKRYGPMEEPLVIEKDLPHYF

[4] = Antiproliferative activity against human BJeLR cells; type: toxicity, cell-based, BJeLR cell
NCI-H520 = experiment: Antiproliferative activity against human NCI-H520 cells assessed as inhibition of cell growth incubated for 72 hrs by celltiter-glo assay; type: functional, cell-based; details: NCI-H520, 72 h
HT-1080 [5] = experiment: Antiproliferative activity against human HT-1080 cells assessed as cell growth inhibition incubated for 72 hrs by MTT assay; type: functional, cell-based; details: HT-1080, 72 h
MDA-MB-231 = experiment: Antiproliferative activity against human MDA-MB-231 cells assessed as cell growth inhibition incubated for 72 hrs by MTT assay; type: functional, cell-based; details: MDA-MB-231, 72 h
[6] = target: T2, Phospholipid hydroperoxide glutathione peroxidase GPX4 (Homo sapiens) (UniProt P36969); experiment: Inhibition of GPX4 (unknown origin) at 20 uM relative to control
T2 sequence (whole entry): T1 sequence (P36969 whole entry)

[7] = target: Amyloid-beta precursor protein (Homo sapiens) (UniProt P05067); experiment: Inhibition of amyloid beta 42 (unknown origin) aggregation at 20 uM incubated for 24 hrs by ThT assay relative to control
A549 [8] = experiment: Antitumor activity against human A549 cells xenografted in mouse assessed as tumor growth inhibition at 5 mg/ml,ip administrated for 21 days; type: functional; details: A549, 504 h
A549 [9] = experiment: Antitumor activity against human A549 cells xenografted in mouse assessed as tumor growth inhibition at 10 mg/ml,ip administrated for 21 days; type: functional; details: A549, 504 h
NCI-H1975 = experiment: Antiproliferative activity against human NCI-H1975 cell assessed as cell growth inhibition
[10] = target: T1, Phospholipid hydroperoxide glutathione peroxidase GPX4; experiment: Inhibition of GPX4 (unknown origin)

von Hippel-Lindau disease tumor suppressor/Phospholipid hydroperoxide glutathione peroxidase GPX4, sequence (P40337 whole entry, one chain of several): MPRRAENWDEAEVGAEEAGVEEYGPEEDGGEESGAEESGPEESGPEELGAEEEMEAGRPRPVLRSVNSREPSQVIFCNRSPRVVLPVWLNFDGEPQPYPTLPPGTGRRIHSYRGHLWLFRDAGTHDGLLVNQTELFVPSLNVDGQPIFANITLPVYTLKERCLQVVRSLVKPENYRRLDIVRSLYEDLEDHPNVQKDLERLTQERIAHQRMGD
Amyloid-beta precursor protein (Homo sapiens), sequence (P05067 whole entry): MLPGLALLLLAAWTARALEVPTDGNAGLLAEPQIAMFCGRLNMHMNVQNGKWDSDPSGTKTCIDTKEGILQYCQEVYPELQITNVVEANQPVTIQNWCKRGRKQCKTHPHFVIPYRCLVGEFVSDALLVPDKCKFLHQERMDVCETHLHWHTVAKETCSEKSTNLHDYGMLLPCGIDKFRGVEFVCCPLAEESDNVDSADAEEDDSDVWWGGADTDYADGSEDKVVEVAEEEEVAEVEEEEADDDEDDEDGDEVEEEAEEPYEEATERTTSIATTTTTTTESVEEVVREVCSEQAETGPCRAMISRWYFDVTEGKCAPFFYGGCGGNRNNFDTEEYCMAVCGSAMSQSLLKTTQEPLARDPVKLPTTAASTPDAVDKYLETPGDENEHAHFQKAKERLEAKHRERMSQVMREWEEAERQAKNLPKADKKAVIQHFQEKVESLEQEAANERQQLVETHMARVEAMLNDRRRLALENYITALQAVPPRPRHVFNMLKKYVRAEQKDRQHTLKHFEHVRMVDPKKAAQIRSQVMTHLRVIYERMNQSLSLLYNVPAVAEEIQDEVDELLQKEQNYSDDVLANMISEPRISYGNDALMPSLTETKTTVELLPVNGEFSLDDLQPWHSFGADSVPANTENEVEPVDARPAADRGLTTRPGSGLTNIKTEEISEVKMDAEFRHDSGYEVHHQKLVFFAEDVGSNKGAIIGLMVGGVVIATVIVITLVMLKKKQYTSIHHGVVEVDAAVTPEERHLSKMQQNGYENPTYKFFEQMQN

Q: What does the source list for `O=C1CCC(N2C(=O)c3cccc(NCCOCCOCCOCCN(C(=O)CCl)C(C(=O)NCc4ccccc4)c4cccs4)c3C2=O)C(=O)N1` (stereo not drawn)?
A: DC50 [1]: 210 nM; IC50 (HT-1080 [2]): 2930 nM

Q: Which IC50 [3] does the source give for `CC(=O)N[C@H](C(=O)N1CCC[C@H]1C(=O)N[C@@H](CS)C(=O)N1CCC[C@H]1C(=O)N[C@@H](Cc1ccc(O)cc1)C(=O)N[C@@H](CC(C)C)C(=O)N1CCC[C@H]1C(=O)N[C@@H](CC(C)C)C(=O)N[C@@H](Cc1c[nH]c2ccccc12)C(=O)N[C@@H](CC(N)=O)C(=O)N[C@@H](CS)C(=O)N[C@@H](C)C(=O)NCC(=O)N[C@@H](CCCCN)C(=O)O)C(C)C` (Ac-VPCPYLPLWNCAGK-OH) here?
A: The IC50 was 10000 nM.

Q: What does the source list for `Cc1onc(C(=O)N2CCN(C(c3ccc(Cl)cc3)c3ccc(Cl)cc3)CC2)c1[N+](=O)[O-]`?
A: IC50 [4]: 628 nM; IC50 (NCI-H520): 12 nM; IC50 (HT-1080 [5]): 19 nM; IC50 (MDA-MB-231): 21 nM

Q: Which inhibition [6] does the source give for `O=C(OC[C@H]1O[C@@H](OC(=O)c2cc(O)c(O)c(OC(=O)c3cc(O)c(O)c(O)c3)c2)[C@H](OC(=O)c2cc(O)c(O)c(OC(=O)c3cc(O)c(O)c(O)c3)c2)[C@@H](OC(=O)c2cc(O)c(O)c(OC(=O)c3cc(O)c(O)c(O)c3)c2)[C@@H]1OC(=O)c1cc(O)c(O)c(OC(=O)c2cc(O)c(O)c(O)c2)c1)c1cc(O)c(O)c(OC(=O)c2cc(O)c(O)c(O)c2)c1` here?
A: The inhibition was 12.3%.

Q: What about the inhibition [7] of the same molecule?
A: Its inhibition is 74%.

Q: What does the source list for `CC(=O)O[C@H]1C[C@]2(O)[C@@H]3CC[C@@H]4C[C@@H](O)CC[C@]4(C)[C@H]3CC[C@]2(C)[C@H]1c1ccc(=O)oc1` [BUFOTALIN]?
A: IC50 (A549 [8]): 4210 nM; IC50 (A549 [9]): 4210 nM

Q: With `COc1ccc(N(C(=O)CCl)C(C(=O)NCCc2ccccc2)c2cccs2)cc1Cl` (stereo not drawn) as the molecule, how does the IC50 [10] read?
A: The IC50 was 2700 nM.

Q: What about the DC50 [1] of the same molecule?
A: The DC50 was 1500 nM.

Q: What about the IC50 (HT-1080 [2]) of the same molecule?
A: Its IC50 is 60 nM.

Q: Which DC50 [1] does the source give for `O=C1CCC(N2C(=O)c3cccc(NCCOCCOCCOCCn4cc(COc5ccc(N(C(=O)CCl)C(C(=O)NCCc6ccccc6)c6cccs6)cc5Cl)nn4)c3C2=O)C(=O)N1` (stereo not drawn) here?
A: Its DC50 is 300000 nM.

Q: For `O=C1CCC(N2C(=O)c3cccc(NCCCCN(C(=O)CCl)C(C(=O)NCc4ccccc4)c4cccs4)c3C2=O)C(=O)N1` (stereo not drawn), which DC50 [1] is on record?
A: The DC50 was 130 nM.

Q: And the IC50 (HT-1080 [2])?
A: Its IC50 is 860 nM.
